Measured values: patent publication US20070149446A1, “Tamandarin analogs and fragments thereof and methods of making and using” (The Trustees of the University of Pennsylvania Center for …, priority 2003, published 2007)
Starred links: 1 amine or outer side, 2 acyl side, 3 side chain; linkers in the order of their positions; H or OH if unused. Positions of bridges follow the written chain, without caps; N, C: chain ends. Non-standard residues stand in square brackets, D forms with d. Residues, ends and D or L forms follow the SMILES beside them. Hexanoyl(3S-OH,4R-NH2,5-Me) = CC(C)[C@@H](N[*:1])[C@@H](O)CC(=O)[*:2]; NMe2Nal = CN[C@@H](Cc1ccc2ccccc2c1)C(=O)O; dNMeL = CN[C@H](CC(C)C)C(=O)O; Hiv = CC(C)[C@H](O)C(=O)O; Lac = C[C@H](O)C(=O)O

Legend:
[1] = from CC(C)C[C@H](NC(=O)[C@@H](OC(=O)C[C@H](O[Si](C(C)C)(C(C)C)C(C)C)[C@H](N)C(C)C)C(C)C)C(=O)N1CCC[C@H]1C(=O)N(C)[C@@H](Cc1ccccc1)C(=O)O[C@H](C)[C@H](NC(=O)OC(C)(C)C)C(=O)O; amide bond; HATU/DIEA; DMF; 8.9 mM; 25.0 °C; 17.0 h; 3 steps
PANC1 = assay: SRB colorimetric cell growth inhibition assay, PANC1
Protocol: (§1) This form of assay employs 96 well cell culture microplates of […] diameter (Faircloth, 1988; Mosmann, 1983). Most of the cell lines are obtained from American Type Culture Collection (ATCC) derived from different human cancer types.
(§2) Cells are maintained in RPMI 1640 10% FBS, supplemented with 0.1 g/l penicillin and 0.1 g/l streptomycin sulfate and then incubated at 37° C., 5% CO2 and 98% humidity. For the experiments, cells were harvested from subconfluent cultures using trypsin and resuspended in fresh medium before plating.
(§3) Cells are seeded in 96 well microtiter plates, at 5×10^3 cells per well in aliquots of 195 μl medium, and they are allowed to attach to the plate surface by growing in drug free medium for 18 hours. Afterward, samples are added in aliquots of 5 μl in a ranging from 10 to 10-8 μg/ml, dissolved in DMSO/EtOH/PBS (0.5:0.5:99). After 48 hours exposure, the antitumor effect are measured by the SRB methodology: cells are fixed by adding 50 μl of cold 50% (wt/vol) trichloroacetic acid (TCA) and incubated for 60 minutes at 4° C.
(§4) Plates are washed with deionised water and dried. One hundred μl of SRB solution (0.4% wt/vol in 1% acetic acid) is added to each microtiter well and incubated for 10 minutes at room temperature. Unbound SRB is removed by washing with 1% acetic acid. Plates are air dried and bound stain is solubilized with Tris buffer. Optical densities are read on a automated spectrophotometric plate reader at a single wavelength of 490 nm.
(§5) The values for mean+/−SD of data from triplicate wells are calculated.
(§6) Some parameters for cellular responses can be calculated: GI=growth inhibition, TGI=total growth inhibition (cytostatic effect) and LC=cell killing (cytotoxic effect).

LN-caP = assay: SRB colorimetric cell growth inhibition assay, LN-caP
Protocol: as §1, §2, §3, §4, §5, §6

A549 = assay: SRB colorimetric cell growth inhibition assay, A549
Protocol: as §1, §2, §3, §4, §5, §6

IGROV-ET = assay: SRB colorimetric cell growth inhibition assay, IGROV-ET
Protocol: as §1, §2, §3, §4, §5, §6

HELA = assay: SRB colorimetric cell growth inhibition assay, HELA
Protocol: as §1, §2, §3, §4, §5, §6

IGROV = assay: SRB colorimetric cell growth inhibition assay, IGROV
Protocol: as §1, §2, §3, §4, §5, §6

HELA-APL = assay: SRB colorimetric cell growth inhibition assay, HELA-APL
Protocol: as §1, §2, §3, §4, §5, §6

DU145 = assay: SRB colorimetric cell growth inhibition assay, DU145
Protocol: as §1, §2, §3, §4, §5, §6

HT29 = assay: SRB colorimetric cell growth inhibition assay, HT29
Protocol: as §1, §2, §3, §4, §5, §6

LOVO-DOX = assay: SRB colorimetric cell growth inhibition assay, LOVO-DOX
Protocol: as §1, §2, §3, §4, §5, §6

SK-MEL-28 = assay: SRB colorimetric cell growth inhibition assay, SK-MEL-28
Protocol: as §1, §2, §3, §4, §5, §6

K562 = assay: SRB colorimetric cell growth inhibition assay, K562
Protocol: as §1, §2, §3, §4, §5, §6

LOVO = assay: SRB colorimetric cell growth inhibition assay, LOVO
Protocol: as §1, §2, §3, §4, §5, §6

SK-BR3 = assay: SRB colorimetric cell growth inhibition assay, SK-BR3
Protocol: as §1, §2, §3, §4, §5, §6

[2] = Homo sapiens, 48 h, read-out: LC50

`CC(C)C[C@@H]1NC(=O)[C@H](C(C)C)OC(=O)C[C@H](O[Si](C(C)C)(C(C)C)C(C)C)[C@@H](C(C)C)NC(=O)[C@@H](NC(=O)OC(C)(C)C)[C@@H](C)OC(=O)[C@H](Cc2ccccc2)N(C)C(=O)[C@@H]2CCCN2C1=O` showed a ring closure, yield of all isomers [1] of 15%.
For `CC(C)C[C@@H]1NC(=O)[C@H](C(C)C)OC(=O)C[C@H](O)[C@@H](C(C)C)NC(=O)[C@@H](NC(=O)[C@@H](CC(C)C)N(C)C(=O)[C@@H]2CCCN2C(=O)[C@H](C)O)[C@@H](C)OC(=O)[C@H](Cc2ccc3ccccc3c2)N(C)C(=O)[C@@H]2CCCN2C1=O` [Compound 93, [2-Naphthylala^5]-Tamandarin B] (H-[Lac]P[dNMeL]T[Hexanoyl(3S-OH,4R-NH2,5-Me)][Hiv]LP[NMe2Nal]; ester 4-C), the GI50 (PANC1; Homo sapiens, PANC-1, 48 h) was 6.24 nM, the CC50 (PANC1; Homo sapiens, PANC-1, 48 h, read-out: LC50) was 9.41 µM and the TGI (PANC1; PANC1 cells, total growth inhibition, SRB, 48 hours exposure) was 9.00E−08 Molar. The GI50 (LN-caP; Homo sapiens, LNCaP, 48 h) was 1.98 nM, the CC50 (LN-caP; Homo sapiens, LNCaP, 48 h, read-out: LC50) was 9.7 nM and the TGI (LN-caP; LN-caP cells, total growth inhibition, SRB, 48 hours exposure) was 4.33E−09 Molar. It also gave a TGI (A549; A549 cells, total growth inhibition, SRB, 48 hours exposure) of 4.86E−08 Molar, a GI50 (A549; Homo sapiens, A549, 48 h) of 6.96 nM and a CC50 (A549; Homo sapiens, A549, 48 h, read-out: LC50) of 595 nM. For the same molecule, the GI50 (IGROV-ET; Homo sapiens, 48 h) was 159 nM, the CC50 (IGROV-ET; [2]) was 2810 nM and the TGI (IGROV-ET; IGROV-ET cells, total growth inhibition, SRB, 48 hours exposure) was 6.54E−07 Molar. For the same molecule, the TGI (HELA; HELA cells, total growth inhibition, SRB, 48 hours exposure) was 9.79E−09 Molar, the GI50 (HELA; Homo sapiens, HeLa, 48 h) was 2.81 nM and the CC50 (HELA; Homo sapiens, HeLa, 48 h, read-out: LC50) was 54.9 nM. For the same molecule, the GI50 (IGROV; Homo sapiens, IGROV, 48 h) was 2.09 nM, the CC50 (IGROV; Homo sapiens, IGROV, 48 h, read-out: LC50) was 666 nM and the TGI (IGROV; IGROV cells, total growth inhibition, SRB, 48 hours exposure) was 1.28E−08 Molar. For the same molecule, the TGI (HELA-APL; HELA-APL cells, total growth inhibition, SRB, 48 hours exposure) was 1.68E−07 Molar, the GI50 (HELA-APL; Homo sapiens, 48 h) was 36.4 nM and the CC50 (HELA-APL; [2]) was 2280 nM. The TGI (DU145; DU145 cells, total growth inhibition, SRB, 48 hours exposure) was 4.39E−09 Molar, the GI50 (DU145; Homo sapiens, DU-145, 48 h) was 2.17 nM and the CC50 (DU145; Homo sapiens, DU-145, 48 h, read-out: LC50) was 8.83 nM. It also gave a TGI (HT29; HT29 cells, total growth inhibition, SRB, 48 hours exposure) of 6.98E−08 Molar, a GI50 (HT29; Homo sapiens, HT-29, 48 h) of 4.6 nM and a CC50 (HT29; Homo sapiens, HT-29, 48 h, read-out: LC50) of 5.58 µM. The GI50 (LOVO-DOX; Homo sapiens, 48 h) was 429 nM, the CC50 (LOVO-DOX; [2]) was 9.41 µM and the TGI (LOVO-DOX; LOVO-DOX cells, total growth inhibition, SRB, 48 hours exposure) was 2.33E−06 Molar. The GI50 (SK-MEL-28; Homo sapiens, SK-MEL-28, 48 h) was 4.14 nM, the CC50 (SK-MEL-28; Homo sapiens, SK-MEL-28, 48 h, read-out: LC50) was 87.9 nM and the TGI (SK-MEL-28; SK-MEL-28 cells, total growth inhibition, SRB, 48 hours exposure) was 1.52E−08 Molar. The GI50 (K562; Homo sapiens, K562, 48 h) was 20 nM, the CC50 (K562; Homo sapiens, K562, 48 h, read-out: LC50) was 198 nM and the TGI (K562; K562 cells, total growth inhibition, SRB, 48 hours exposure) was 4.73E−08 Molar. For the same molecule, the GI50 (LOVO; Homo sapiens, LoVo, 48 h) was 6.84 nM, the CC50 (LOVO; Homo sapiens, LoVo, 48 h, read-out: LC50) was 2490 nM and the TGI (LOVO; LOVO cells, total growth inhibition, SRB, 48 hours exposure) was 4.27E−08 Molar. It also gave a GI50 (SK-BR3; Homo sapiens, SK-BR-3, 48 h) of 1.83 nM, a CC50 (SK-BR3; Homo sapiens, SK-BR-3, 48 h, read-out: LC50) of 4.65 µM and a TGI (SK-BR3; SK-BR3 cells, total growth inhibition, SRB, 48 hours exposure) of 1.89E−08 Molar.
